From patent US20200138824A1, “TREATMENT OF CANCER WITH A PI3K INHIBITOR IN A PATIENT PRESELECTED FOR HAVING A PIK3CA MUTATION IN THE CTDNA” (Novartis AG, priority 2015, published 2020)

Test system: HR+, HER2-negative locally advanced or metastatic breast cancer
Test: Study CBKM120F2302, randomized double-blind placebo-controlled Phase-III trial: buparlisib plus fulvestrant vs. placebo plus fulvestrant
Format: in vivo, human
Details: Full population
Excerpt: For the Study, patients were selected according to the following inclusions and exclusion criteria:
Inclusion Criteria: • Locally advanced or metastatic breast cancer • HER2-negative and hormone receptor-positive status (common breast cancer classification tests) • Postmenopausal woman • A tumor sample must be shipped to a Novartis designated laboratory for identification of biomarkers (PI3K activation status) • Progression or recurrence of breast cancer while on or after aromatase inhibitor treatment • Measurable disease or non measurable disease bone lesions in the absence of measurable disease as per Response Evaluation Criteria in Solid Tumors 1.1 • Adequate bone marrow and organ function defined by laboratory values
Approximately 1200 patients were to be randomized in a 1:1 ratio. Enrollment was to continue until a minimum of 842 patients were randomized in the main cohort, including ≥334 patients with activated PI3K pathway status. […]
The PI3K pathway activation status was defined based on analysis of archival tumor samples as: • A mutation in the PIK3CA gene in one or more of exons 1, 7, 9, or 20 as assessed by Sanger sequencing, and/or • Loss of phosphotensin homolog (PTEN) expression (<10% of tumor cells expressing PTEN at 1+ level by immunohistochemistry [IHC] and no tumor cells staining with an intensity >1+) […]

Nc1cc(C(F)(F)F)c(-c2cc(N3CCOCC3)nc(N3CCOCC3)n2)cn1 [buparlisib, 5-(2,6-di-morpholin-4-yl-pyrimidin-4-yl)-4-trifluoromethyl-pyridin-2-ylamine]
Overall safety and tolerability profile: consistent with prior experience in single-arm and combination studies and with the class effects of PI3K inhibitors
